In patent publication US20100267561A1, “HERBICIDAL PYRIDAZINONE DERIVATIVES” (priority 2007, published 2010):

Key:
Format in all cases: in vivo
[1] = system: Italian ryegrass (Lolium multiflorum); test: Test B pre-/postemergence plant response; settings: for Ryegrass, Italian plant response rating: 8 g ai/ha
Outline: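 Seeds were sown and sprayed preemergence, while plants at 2 to 18 cm (1- to 4-leaf stage) got postemergence sprays. Compounds were formulated in a non-phytotoxic solvent mixture with surfactant. After 13 to 15 days in a greenhouse, injury was rated visually against untreated controls, 0 (no effect) to 100 (complete control).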

[2] = system: Italian ryegrass (Lolium multiflorum); test: Test C pre-/postemergence plant response
Text: (§1) Seeds of plant species selected from annual bluegrass (Poa annua), blackgrass (Alopecurus myosuroides), canola (Brassica rapa), downy bromegrass (Bromus tectorum), green foxtail (Setaria viridis), Italian ryegrass (Lolium multiflorum), canarygrass (Phalaris minor), pigweed (Amaranthus retroflexus), spring barley (Hordeum vulgare), spring wheat (Triticum aestivum), wild mustard (Sinapis arvensis), wild oat (Avena fatua), windgrass (Apera spica-venti), winter barley (Hordeum vulgare), and winter wheat (Triticum aestivum) were planted and treated preemergence with test chemicals formulated in a non-phytotoxic solvent mixture which included a surfactant. At the same time, plants selected from these crop and weed species were treated with postemergence applications of some of the test chemicals formulated in the same manner. Plants ranged in height from 2 to 18 cm (1- to 4-leaf stage) for postemergence treatments.
(§2) Treated plants and controls were maintained in a controlled growth environment for 15 to 25 days after which time all species were compared to controls and visually evaluated. Plant response ratings, summarized in Table C, are based on a scale of 0 to 100 where 0 is no effect and 100 is complete control. A dash (-) response means no test result.

[3] = system: annual bluegrass (Poa annua); test: Test C pre-/postemergence plant response
Text: as §1, §2

[4] = system: blackgrass (Alopecurus myosuroides); test: Test C pre-/postemergence plant response
Text: as §1, §2

[5] = system: canarygrass (Phalaris minor); test: Test C pre-/postemergence plant response; settings: Preemergence
Text: as §1, §2

[6] = system: downy bromegrass (Bromus tectorum); test: Test C pre-/postemergence plant response
Text: as §1, §2

[7] = system: green foxtail (Setaria viridis); test: Test C pre-/postemergence plant response
Text: as §1, §2

[8] = system: pigweed (Amaranthus retroflexus); test: Test C pre-/postemergence plant response
Text: as §1, §2

[9] = system: spring wheat (Triticum aestivum); test: Test C pre-/postemergence plant response
Text: as §1, §2

[10] = system: wild mustard (Sinapis arvensis); test: Test C pre-/postemergence plant response
Text: as §1, §2

[11] = system: wild oat (Avena fatua); test: Test C pre-/postemergence plant response
Text: as §1, §2

[12] = system: windgrass (Apera spica-venti); test: Test C pre-/postemergence plant response
Text: as §1, §2

[13] = system: winter barley (Hordeum vulgare); test: Test C pre-/postemergence plant response
Text: as §1, §2

[14] = system: winter wheat (Triticum aestivum); test: Test C pre-/postemergence plant response
Text: as §1, §2

[15] = Postemergence, 31 g ai/ha, scale 0 to 100, 0 no effect, 100 complete control
[16] = Preemergence, 16 g ai/ha, scale 0 to 100 (0 no effect, 100 complete control)
[17] = Postemergence, 8 g ai/ha, scale 0 to 100, 0 no effect, 100 complete control
[18] = Postemergence, 16 g ai/ha, scale 0 to 100, 0 no effect, 100 complete control
[19] = Postemergence, 62 g ai/ha, scale 0 to 100, 0 no effect, 100 complete control
[20] = Preemergence, 8 g ai/ha, scale 0 to 100 (0 no effect, 100 complete control)
[21] = Preemergence, 31 g ai/ha, scale 0 to 100 (0 no effect, 100 complete control)
[22] = Preemergence, 62 g ai/ha, scale 0 to 100, 0 no effect, 100 complete control

CCc1cc(-c2ccc(C(F)(F)F)cc2)nn1-c1c(OS(C)(=O)=O)cnn(C)c1=O [Compound 19]
60: Plant response rating, Ryegrass, Italian [2, 17] | Plant response rating, Wheat, Spring [9, 21] | Plant response rating, Wheat, Winter [14, 21]
90: Plant response rating, Ryegrass, Italian [1, 16] | Plant response rating, Canarygrass ([5]; 16 g ai/ha, scale 0 to 100 (0 no effect, 100 complete control)) | Plant response rating, Wheat, Spring [9, 15] | Plant response rating, Wheat, Winter [14, 15] | Plant response rating, Wheat, Winter [14, 22]
40: Plant response rating, Bromegrass, Downy [6, 17] | Plant response rating, Wheat, Spring [9, 16] | Plant response rating, Barley, Winter [13, 16]
70: Plant response rating, Wheat, Spring [9, 17]
35: Plant response rating, Bluegrass [3, 19]
65: Plant response rating, Canarygrass ([5]; 8 g ai/ha, scale 0 to 100 (0 no effect, 100 complete control)) | Plant response rating, Bromegrass, Downy [6, 18] | Plant response rating, Bromegrass, Downy [6, 16] | Plant response rating, Oat, Wild [11, 20] | Plant response rating, Oat, Wild [11, 16]
80: Ryegrass, Italian plant response rating ([1]; postemergence, 0-100 scale) | Plant response rating, Ryegrass, Italian [2, 20] | Plant response rating, Blackgrass [4, 20] | Plant response rating, Wheat, Spring [9, 18] | Plant response rating, Oat, Wild [11, 21] | Plant response rating, Windgrass [12, 17] | Plant response rating, Barley, Winter [13, 22] | Plant response rating, Wheat, Winter [14, 18]
100: Plant response rating, Ryegrass, Italian [1, 15] | Plant response rating, Ryegrass, Italian ([1]; Postemergence, 62 g ai/ha, scale 0 to 100) | Plant response rating, Ryegrass, Italian ([1]; Preemergence, 31 g ai/ha, 0 to 100 scale, 0 no effect, 100 complete control) | Plant response rating, Ryegrass, Italian ([1]; Preemergence, 62 g ai/ha, scale 0 to 100) | Plant response rating, Ryegrass, Italian [2, 18] | Plant response rating, Ryegrass, Italian [2, 15] | Plant response rating, Ryegrass, Italian [2, 19] | Plant response rating, Ryegrass, Italian [2, 16] | Plant response rating, Ryegrass, Italian [2, 21] | Plant response rating, Ryegrass, Italian [2, 22] | Plant response rating, Blackgrass [4, 18] | Plant response rating, Blackgrass [4, 15] | Plant response rating, Blackgrass [4, 19] | Plant response rating, Blackgrass [4, 16] | Plant response rating, Blackgrass [4, 21] | Plant response rating, Blackgrass [4, 22] | Plant response rating, Canarygrass ([5]; 62 g ai/ha, scale 0 to 100, 0 no effect, 100 complete control) | Plant response rating, Bromegrass, Downy [6, 19] | Plant response rating, Foxtail, Green [7, 18] | Plant response rating, Foxtail, Green [7, 15] | Plant response rating, Foxtail, Green [7, 19] | Plant response rating, Foxtail, Green [7, 16] | Plant response rating, Foxtail, Green [7, 21] | Plant response rating, Foxtail, Green [7, 22] | Plant response rating, Wheat, Spring [9, 19] | Plant response rating, Oat, Wild [11, 17] | Plant response rating, Oat, Wild [11, 18] | Plant response rating, Oat, Wild [11, 15] | Plant response rating, Oat, Wild [11, 19] | Plant response rating, Windgrass [12, 18] | Plant response rating, Windgrass [12, 15] | Plant response rating, Windgrass [12, 19] | Plant response rating, Windgrass [12, 20] | Plant response rating, Windgrass [12, 16] | Plant response rating, Windgrass [12, 21] | Plant response rating, Windgrass [12, 22] | Plant response rating, Barley, Winter [13, 15] | Plant response rating, Barley, Winter [13, 19] | Plant response rating, Wheat, Winter [14, 19]
30: Plant response rating, Bromegrass, Downy [6, 20] | Plant response rating, Pigweed [8, 16]
98: Plant response rating, Ryegrass, Italian ([1]; Postemergence, 16 g ai/ha, scale 0 to 100) | Plant response rating, Canarygrass ([5]; 31 g ai/ha, scale 0 to 100 (0 no effect, 100 complete control)) | Plant response rating, Bromegrass, Downy [6, 15]
0: Plant response rating, Bluegrass [3, 17] | Plant response rating, Bluegrass [3, 18] | Plant response rating, Bluegrass [3, 16] | Plant response rating, Pigweed [8, 17] | Plant response rating, Pigweed [8, 18] | Plant response rating, Pigweed [8, 15] | Plant response rating, Pigweed [8, 19] | Plant response rating, Pigweed [8, 20] | Plant response rating, Wheat, Spring [9, 20] | Plant response rating, Mustard, Wild [10, 17] | Plant response rating, Mustard, Wild [10, 20] | Plant response rating, Mustard, Wild [10, 16] | Plant response rating, Mustard, Wild [10, 21] | Plant response rating, Mustard, Wild [10, 22]
25: Plant response rating, Bluegrass [3, 15]
10: Plant response rating, Wheat, Winter [14, 20]
50: Ryegrass, Italian plant response rating ([1]; Preemergence, scale 0 to 100) | Plant response rating, Pigweed [8, 21] | Plant response rating, Barley, Winter [13, 18] | Plant response rating, Wheat, Winter [14, 16]
75: Plant response rating, Blackgrass [4, 17] | Plant response rating, Bromegrass, Downy [6, 21] | Plant response rating, Pigweed [8, 22] | Plant response rating, Wheat, Spring [9, 22] | Plant response rating, Barley, Winter [13, 21]
20: Plant response rating, Foxtail, Green [7, 20] | Plant response rating, Mustard, Wild [10, 18] | Plant response rating, Mustard, Wild [10, 15] | Plant response rating, Mustard, Wild [10, 19] | Plant response rating, Barley, Winter [13, 17] | Plant response rating, Barley, Winter [13, 20] | Plant response rating, Wheat, Winter [14, 17]
95: Plant response rating, Bromegrass, Downy [6, 22] | Plant response rating, Foxtail, Green [7, 17] | Plant response rating, Oat, Wild [11, 22]
